Test results: patent US12502362B2, “Inhibitors of nucleotidyltransferase superfamily enzymes as antibiotics” (priority 2017, dated 2025)
≈ marks a conversion by molar mass, not a printed value. Counter-ions that a name gives are not always drawn. Like-named read-outs stand apart in the source and are kept apart here.

What was measured:
[1] = test system: Klebsiella pneumonia; assay: Antibiotic susceptibility of Klebsiella pneumonia strains; assay type: cell-based
Description: (§1) All these MDR-bacteria are at least resistant to two classes of the antibiotics among five groups and/or specific antibiotics including quinolones/fluorquinolones, carbapenems, cephalosporins, aminoglycosides and piperacillin-tazobactam.

[2] = test system: Morganella morganii; assay: Antibiotic susceptibility of Morganella morganii strain; assay type: cell-based; conditions: Mm1 (Morganella morganii)
Description: as §1

[3] = test system: MDR Acinetobacter baumannii; assay type: cell-based
Description: as §1

[4] = test system: MDR E. coli; assay type: cell-based
Description: as §1

[5] = test system: Citrobacter koseri; assay: Antibiotic susceptibility of Citrobacter koseri strain; assay type: cell-based; conditions: Ck1 (Citrobacter koseri)
Description: as §1

[6] = Cytotoxicity assay (CC50), MTS; assay type: cell-based, human; conditions: human, HEPDES19 cells
Description: (§2) To further characterize the compounds, the minimal inhibitory concentration (MIC80) were determined for selected compounds. MIC80 is defined as the compound concentration at which ≥80% bacterial growth is inhibited compare to untreated controls. Meanwhile, for the selected compounds, cytotoxicity assays (CC50) were performed on a HepG2-derived hepatoblastoma cell line (HEPDES19). […] For CC50 evaluation, soluble tetrazolium dye (MTS) was used to measure mitochondrial toxicity in a human hepatoblastoma cell line (18). The bacteria (E. coli, S. saprophyticus and A. baumannii) used in MIC80 measurements were the same as that in the primary screening, but for Staphylococcus, S. aureus is used primarily because it is a common pathogen in Staphylococcaeae family, while S. saprophyticus is part of the normal human flora.

[7] = test system: HepG2-derived hepatoblastoma cell line (HEPDES19); assay: Cytotoxicity assay (CC50), MTS; assay type: cell-based, human; conditions: HEPDES19 cells
Description: as §2

[8] = test system: S. aureus (ATCC 29213); assay: MIC80 on S. aureus; assay type: cell-based, Staphylococcus aureus; conditions: ≥80% growth inhibition; for MIC80: Staphylococcus aureus, ATCC 29213 / MSSA, read-out: MIC80 S. aureus, S. aureus ATCC 29213 (MSSA); for MIC80 S. aureus: S. aureus ATCC 29213 (MSSA)
Description: as §2

[9] = test system: S. aureus and/or S. saprophyticus; assay: MIC80 on S. aureus and/or S. saprophyticus; assay type: cell-based; conditions: read-out: MIC80 against S. aureus and/or S. saprophyticus
Description: as §2, with “(HEPDES19). […] For the MIC80 measurements, a 1.5 fold dilution series of the compounds was prepared in Mueller-Hinton II broth.” for “(HEPDES19).”, “flora. S. aureus (ATCC 29213) is methicillin-sensitive Staphylococcus aureus (MSSA) strain and it was used as a model strain to measure the MIC80.” for “flora.”

[10] = test system: E. coli (ATCC 35218); assay: microbe, parasite or virus in culture; assay type: cell-based; conditions: for MIC80: Escherichia coli, ATCC35218, read-out: MIC80 E. coli, E. coli ATCC 35218; for MIC80 E. coli: E. coli ATCC 35218
Description: as §2

[11] = test system: Staphylococcus saprophyticus (ATCC BAA-750); assay: MIC80 on S. saprophyticus; assay type: cell-based; conditions: S. saprophyticus ATCC BAA-750, read-out: MIC80 S. sapro
Description: as §2

[12] = test system: Acinetobacter baumannii (Abl, from a patient); assay: microbe, parasite or virus in culture; assay type: cell-based; conditions: for MIC80: Acinetobacter baumannii, read-out: MIC80 A. baumannii, A. baumannii Ab1, MDR patient isolate; for MIC80 A. baumannii: A. baumannii Ab1, MDR patient isolate
Description: as §2

[13] = HepG2-derived hepatoblastoma cell line (HEPDES19)
[14] = Staphylococcus saprophyticus, ATCCBAA750

| Molecule | CC50 [6, 13] | CC50 [7] | MIC80 [8] | MIC80 [9] | MIC80 [10] | MIC80 [11, 14] | MIC80 [12] | MIC80 E. coli [10] | further results |
| --- | --- | --- | --- | --- | --- | --- | --- | --- | --- |
| CC1(C)S[C@@H]2[C@H](NC(=O)[C@H](N)c3ccccc3)C(=O)N2[C@H]1C(=O)O [AMP, Ampicillin] | – | – | – | – | – | – | – | – | Antibiotic susceptibility ([1]; Kp1 (Klebsiella pneumonia)): R; Antibiotic susceptibility ([1]; Kp6 (Klebsiella pneumonia)): R; Antibiotic susceptibility [2]: R; Antibiotic susceptibility ([3]; Ab1 (Acinetobacter baumannii)): R; Antibiotic susceptibility ([3]; Ab2 (Acinetobacter baumannii)): R; Antibiotic susceptibility ([3]; Ab3 (Acinetobacter baumannii)): R; Antibiotic susceptibility ([3]; Ab4 (Acinetobacter baumannii)): R; Antibiotic susceptibility ([3]; Ab5 (Acinetobacter baumannii)): R; Antibiotic susceptibility ([4]; Ec1 (E. coli)): R; Antibiotic susceptibility ([4]; Ec2 (E. coli)): R; Antibiotic susceptibility ([4]; Ec3 (E. coli)): R; Antibiotic susceptibility ([4]; Ec4 (E. coli)): R; Antibiotic susceptibility ([4]; Ec5 (E. coli)): R |
| Cc1nnc(SCC2=C(C(=O)O)N3C(=O)[C@@H](NC(=O)Cn4cnnn4)[C@H]3SC2)s1 [CFZ, Cefazolin] | – | – | – | – | – | – | – | – | Antibiotic susceptibility ([1]; Kp1 (Klebsiella pneumonia)): R; Antibiotic susceptibility ([1]; Kp6 (Klebsiella pneumonia)): R; Antibiotic susceptibility [2]: R; Antibiotic susceptibility [5]: R; Antibiotic susceptibility ([3]; Ab1 (Acinetobacter baumannii)): R; Antibiotic susceptibility ([3]; Ab2 (Acinetobacter baumannii)): R; Antibiotic susceptibility ([3]; Ab3 (Acinetobacter baumannii)): R; Antibiotic susceptibility ([3]; Ab4 (Acinetobacter baumannii)): R; Antibiotic susceptibility ([3]; Ab5 (Acinetobacter baumannii)): R; Antibiotic susceptibility ([4]; Ec1 (E. coli)): R; Antibiotic susceptibility ([4]; Ec2 (E. coli)): R; Antibiotic susceptibility ([4]; Ec3 (E. coli)): R; Antibiotic susceptibility ([4]; Ec4 (E. coli)): R; Antibiotic susceptibility ([4]; Ec5 (E. coli)): R |
| O=c1ccc2ccccc2n1O [Compound 43] | > 50 µM | ≥ 100 µM | 13.2 µM (≈ 2.13 µg/mL) | < 20 µM | 111 µM (≈ 17.9 µg/mL) | 11.4 µM (≈ 1.84 µg/mL) | – | – | – |
| CC(C)c1ccc(O)c(=O)c(O)c1 [Compound 46] | – | – | 19.8 µM (≈ 3.57 µg/mL) | < 20 µM | 44.4 µM (≈ 8 µg/mL) | 29.6 µM (≈ 5.33 µg/mL) | 100 µM (≈ 18 µg/mL) | – | CC50 [6]: < 50 µM |
| O=C(Oc1cccccc1=O)c1ccc([N+](=O)[O-])cc1 [Compound 51] | > 50 µM | 56 µM | 16.5 µM (≈ 4.48 µg/mL) | < 20 µM | 167 µM (≈ 45.2 µg/mL) | 15.1 µM (≈ 4.1 µg/mL) | – | – | – |
| O=c1cccccc1O [Compound 53] | – | ≥ 100 µM | – | – | – | – | – | >100 µM | MIC80 S. aureus [8]: 11.7 µM (≈ 1.43 µg/mL); MIC80 [11]: 8.8 µM (≈ 1.07 µg/mL) |
| O=c1ccccc(Br)c1O [Compound 54] | > 50 µM | – | 16.1 µM (≈ 3.24 µg/mL) | < 20 µM | 70.4 µM (≈ 14.2 µg/mL) | 14.9 µM (≈ 3 µg/mL) | 44.4 µM (≈ 8.93 µg/mL) | – | – |
| O=C(Oc1cccccc1=O)c1ccccc1 [Compound 62] | > 50 µM | – | 19.8 µM (≈ 4.48 µg/mL) | < 20 µM | 111 µM (≈ 25.1 µg/mL) | 10.3 µM (≈ 2.33 µg/mL) | 83.4 µM (≈ 18.9 µg/mL) | – | – |
| CC(C)C(CO)n1cc(C(=O)O)c(=O)c2cc(Cc3cccc(Cl)c3F)c(F)cc21 (stereo not drawn) [Compound 75] | – | 28 µM | – | – | – | – | – | 100 µM (≈ 43.6 µg/mL) | MIC80 S. aureus [8]: 8.8 µM (≈ 3.84 µg/mL); MIC80 [11]: 15.1 µM (≈ 6.58 µg/mL) |
| Cc1cc(O)c(=O)c(O)cc1C(=O)C1CCCCC1 [Compound 120] | < 50 µM | – | 19.8 µM (≈ 5.19 µg/mL) | < 20 µM | 44.4 µM (≈ 11.6 µg/mL) | – | 83.4 µM (≈ 21.9 µg/mL) | – | – |
| CC1=C(C#N)C(O)=NC(=O)/C1=C\c1ccc(-c2ccccc2)o1 [Compound 140] | < 50 µM | 42 µM | 3.9 µM (≈ 1.19 µg/mL) | < 20 µM | > 100 µM | 12.7 µM (≈ 3.86 µg/mL) | – | – | – |
| O=c1cc(Cc2ccc(Br)cc2)c2cccnc2n1O [Compound 149, 4-[(4-bromophenyl)methyl]-1-hydroxy-1,8-naphthyridin-2-one hydrobromide] | – | – | – | – | > 100 µM | 2.5 µM | – | – | – |
| O=c1cc(-c2ccccc2)c2cccnc2n1O [Compound 154, 1-hydroxy-4-phenyl-1,8-naphthyridin-2-one] | 4 µM | – | – | < 20 µM | < 30 µM | 17.8 µM (≈ 4.24 µg/mL) | – | 21.9 µM (≈ 5.22 µg/mL) | – |
| O=c1c(O)ccc(-c2ccccc2)cc1O [Compound 262] | > 50 µM | 57 µM | 19.8 µM (≈ 4.24 µg/mL) | < 20 µM | 66.7 µM (≈ 14.3 µg/mL) | 19.8 µM (≈ 4.24 µg/mL) | 100 µM (≈ 21.4 µg/mL) | – | – |
| Cc1cc(O)c(O)c(=O)c(O)c1 [Compound 272] | 10 µM | – | – | – | 44.4 µM (≈ 7.47 µg/mL) | – | < 30 µM | – | MIC80 A. baumannii [12]: 29.6 µM (≈ 4.98 µg/mL) |
| Cc1cc(O)c(=O)c(O)cc1C(=O)c1cccs1 [Compound 308] | < 50 µM | 26 µM | 44.4 µM (≈ 11.6 µg/mL) | – | < 30 µM | 29.6 µM (≈ 7.76 µg/mL) | 32.1 µM (≈ 8.42 µg/mL) | 24.7 µM (≈ 6.48 µg/mL) | – |
| Cc1cc(O)c(=O)c(O)cc1C(=O)C1CC1 [Compound 310] | > 50 µM | – | – | – | < 30 µM | 44.4 µM (≈ 9.78 µg/mL) | < 30 µM | 29.6 µM (≈ 6.52 µg/mL) | MIC80 A. baumannii [12]: 29.6 µM (≈ 6.52 µg/mL) |
| Cc1cc(O)c(=O)c(O)cc1C(=O)c1ccccc1O [Compound 311] | < 50 µM | 32 µM | 66.7 µM (≈ 18.2 µg/mL) | – | < 30 µM | – | 44.4 µM (≈ 12.1 µg/mL) | 29.6 µM (≈ 8.06 µg/mL) | – |
| O=c1c(Br)cc(Br)cc(Br)c1O [Compound 350] | < 50 µM | 45 µM | 2.6 µM (≈ 0.933 µg/mL) | < 20 µM | 100 µM (≈ 35.9 µg/mL) | – | 100 µM (≈ 35.9 µg/mL) | – | – |
| Ampicillin-Sulbactam [SAM] | – | – | – | – | – | – | – | – | Antibiotic susceptibility ([1]; Kp1 (Klebsiella pneumonia)): R; Antibiotic susceptibility ([1]; Kp6 (Klebsiella pneumonia)): R; Antibiotic susceptibility [2]: R; Antibiotic susceptibility ([3]; Ab1 (Acinetobacter baumannii)): S; Antibiotic susceptibility ([3]; Ab2 (Acinetobacter baumannii)): S; Antibiotic susceptibility ([3]; Ab3 (Acinetobacter baumannii)): S; Antibiotic susceptibility ([3]; Ab4 (Acinetobacter baumannii)): S; Antibiotic susceptibility ([3]; Ab5 (Acinetobacter baumannii)): I; Antibiotic susceptibility ([4]; Ec1 (E. coli)): R; Antibiotic susceptibility ([4]; Ec2 (E. coli)): I; Antibiotic susceptibility ([4]; Ec3 (E. coli)): I; Antibiotic susceptibility ([4]; Ec4 (E. coli)): R; Antibiotic susceptibility ([4]; Ec5 (E. coli)): R |
